Test [1] has as its target T1, CgPK (Magallana gigas, UniProt Z9A5V8HWU5).
T1 construct: full-length CDS in pET-32a, 6xHis tags at N- and C-ends, expressed in E. coli; captured on CM5 chip by anti-His antibody
The experiment in a line: SPR (BIAcore T200, CM5 chip, anti-His capture), […] Langmuir fit. Format: binding. As to conditions: PBS-P+ analyte buffer, running buffer HBS-EP+ pH 7.5, mimics dephosphorylation.

In test [2] the target is T1, CgPK. The test is described as above. Format: binding. The note with it: PBS-P+ analyte buffer, running buffer HBS-EP+ pH 7.5, recombinant from E. coli.

Broadly, the Kd is a measure of binding affinity in units of concentration. On to `C=C(OP(=O)(O)O)C(=O)O` [PEP], for which the results for the Kd at CgPK [1] (PEP 100-1600 nM) and at CgPK [2] (PEP 100-1600 nM) were 93.4 nM and 9.75 nM, respectively.
On to `Nc1ncnc2c1ncn2[C@@H]1O[C@H](COP(=O)(O)OP(=O)(O)O)[C@@H](O)[C@H]1O` [ADP], for which the Kd at CgPK [1] (ADP 1.25-10 uM) is 72.5 nM; at CgPK [2] (ADP 1.25-10 uM), 41.7 nM.

These data come from article PMC11269933, “MAPK/ERK-PK(Ser11) pathway regulates divergent thermal metabolism of two congeneric oyster species” (iScience, 2024).
